Measurements as given in EP0101234A1, “Therapeutic agent” (The Boots Company PLC, priority 1982, dated 1984).
Counter-ions that a name gives are not always drawn. Like-named read-outs stand apart in the source and are kept apart here.

Test system: uptake systems for 5HT in the brain
Test: in vivo inhibition of p-chloroamphetamine-induced depletion of brain 5HT
Design: species or system Charles River CD rats
Settings: Rattus norvegicus, read-out: percentage inhibition of depletion (Ib)
Procedure: Once inside the neuron the depletor agent displaces the amine transmitter from its storage sites into the cytoplasm of the cell where it is metabolised by monoamine oxidase. […] The levels of the amine transmitter are preserved by pretreatment of the uptake sites with an uptake inhibitor. […] After 30 minutes a solution of p-chloroamphetamine in. distilled water was injected intraperitoneally at a dose of 5 mg/kg. After a further four hours the animals were sacrificed and the 5HT level in the brain determined fluorometrically.
The 5HT level in the brain was also determined in Control animals which received only vehicle solutions and for animals which received vehicle orally instead of the test compound followed by intraperitoneal injections of the depleting agent. These latter animals are referred to herein as depleted controls. The percentage inhibition. of depletion (Ib) was calculated using the formula

[1] = rats, 30 mg/kg orally, p-chloroamphetamine 5 mg/kg i.p. after 30 minutes, brain 5HT level after a further four hours

Structure (SMILES)	inhibition at 30 mg/kg [1] [%]	inhibition at 30 mg/kg [%]
CN(C)CC/C=C1\c2ccccc2CSc2ccccc21 [Dothiepin]	9	–
CN(C)CCCN1c2ccccc2CCc2ccc(Cl)cc21 [Clomipramine]	–	8
CN(C)CCC=C1c2cc(C#N)ccc2CSc2ccccc21 [Product of Example A, 11-(3-Dimethyl-aminopropylidene)6,1i-dihydrodibenzo[b,e]thiepin-9-carbonitrile hydrobromide]	0	–
CN(C)CCC=C1c2ccccc2CSc2ccc(C#N)cc21 [Product of Example 1, 11-(3-dimethylaminopropylidene)-6,11-dihydrodibenzo(b,e)thiepin-2-carbonitrile hydrobromide]	82	–
CN(C)CCCN1c2ccccc2CCc2ccccc21 [Imipramine]	–	18
